From patent publication US20250170114A1, “METHODS OF TREATMENT USING T-TYPE CALCIUM CHANNEL MODULATORS” (Praxis Precision Medicines, Inc., priority 2022, published 2025)
Entries after “also recorded” stand apart in the source; their conditions may differ.

Tests used:
[1] = system: harmaline-induced tremor in male SD rats; test: Tremor assessment (tremor score 0-4) with harmaline in SD rats; type: in vivo, rat; conditions: harmaline 30 mg/kg, doses of 1, 3 and 10 mg/kg, listed as compound of Formula (I)
Source text: Each of six groups of male SD rats were subjected to a tremor assessment, followed by three ADL-like measures including open field test, rotarod test, and wire grip test after receiving doses of either vehicle, Formula (I), or propranolol, followed by either saline or harmaline, as outlined below in Table 22 below. Twenty minutes after administration of harmaline or saline, the rats were subjected to a tremor assessment using the score criteria outlined in the table below.

[2] = system: harmaline-induced motor impairment in male SD rats; test: Wire grip test with harmaline in SD rats; type: in vivo, rat; conditions: harmaline 30 mg/kg, dose of 1, 3 and 10 mg/kg
Source text: (§1) Each of six groups of male SD rats were subjected to a tremor assessment, followed by three ADL-like measures including open field test, rotarod test, and wire grip test after receiving doses of either vehicle, Formula (I), or propranolol, followed by either saline or harmaline, as outlined below in Table 22 below.
Fifteen minutes after the rotarod test, rats were subjected to a wire grip test using an 80 cm long and 7 mm in diameter wire placed at a height of 50 cm.

[3] = system: harmaline-induced motor impairment in male SD rats; test: Rotarod test with harmaline in SD rats; type: in vivo, rat; conditions: harmaline 30 mg/kg, dose of 3 and 10 mg/kg
Protocol: as §1
Fifteen minutes after the open field test, the rats were subjected to a rotarod test. The speed of the rotarod increased from 10 rpms to 60 rpms within the first five minutes of the test. FIG. 9 is a bar graph showing the mean of latency to fall in the rotarod test measured in rats that were administered 30 mg/kg harmaline and also administered 10 mg/kg propranolol or 1 mg/kg, 3 mg/kg or 10 mg/kg study drug.

participants with ET [4] = test: Phase 2 trial Part B: Quality of Life in Essential Tremor Questionnaire (QUEST); type: in vivo, human; conditions: pre-dose baseline to Day 56, participants receiving study drug
Source text: In both phases, key safety measures included clinical laboratory evaluations, 12-lead ECG, C-SSRS, and vital signs. Key efficacy assessments included the TETRAS Performance subscale, TETRAS Upper Limb using accelerometry, CGI, PGI-C, TETRAS ADL Subscale, QUEST, BDI-II, and BAI. Blood samples were obtained for the determination of study drug and metabolite plasma concentrations.

participants with ET [5] = test: Phase 2 trial Part B: Beck Depression Inventory (BDI-II); type: in vivo, human
Protocol: The Beck Depression Inventory (BDI-II) is a list of 21 common symptoms of depression (Beck et al 1996). Each item is scored on a 4-point Likert scale (range of scores is 0 through 3). The time frame for assessment is the […] or since the last assessment. The BDI-II is divided into 2 subscales: Affective and Somatic. The subscale scores are calculated as the sum of the items comprising each subscale. The total score is calculated as the sum of all 21 items and ranges from 0 to 63. A total score of 0 to 13 indicates minimal depressive symptoms. A total score of 14 to 19 indicates mild depressive symptoms. A total score of 20 to 28 indicates moderate depressive symptoms. A total score of 29 to 63 indicates severe depressive symptoms. The BDI-II is assessed at screening to exclude participants with moderate to severe depressive symptoms. […] In both phases, key safety measures included clinical laboratory evaluations, 12-lead ECG, C-SSRS, and vital signs. Key efficacy assessments included the TETRAS Performance subscale, TETRAS Upper Limb using accelerometry, CGI, PGI-C, TETRAS ADL Subscale, QUEST, BDI-II, and BAI. Blood samples were obtained for the determination of study drug and metabolite plasma concentrations.

[6] = listed as compound of Formula (I)
[7] = Part B OLT (FAS), Day 7, n = 13
[8] = Part B OLT (FAS), Day 21, n = 12
[9] = Part B OLT (FAS), Day 42, n = 10
[10] = Part B RWD (RWAS), Day 56, Study drug, n = 6
[11] = Part B RWD (RWAS), Day 70, Study drug, n = 5

Structure (SMILES): CC(C)(C)NC(=O)CN1CCC(CNC(=O)c2cc(F)cc(Cl)c2)CC1.Cl [Study drug]
- average tremor score vs vehicle and harmaline only [1]: significantly reduced; also recorded: significant inhibition
- latency to fall in wire grip test vs vehicle and harmaline only ([2]; listed as Formula (I)): significantly attenuated
- latency to fall in wire grip test vs vehicle and harmaline only [2, 6]: significantly attenuated decrease in fall off latency
- latency to fall in rotarod test vs vehicle and harmaline only ([3]; listed as Formula (I)): significantly attenuated
- latency to fall in rotarod test vs vehicle and harmaline only [3, 6]: significant attenuation of motor impairment
- Quality of life measured by QUEST (participants with ET [4]): improved
- BDI-II Depressive Symptoms Mild (14-19) (participants with ET [5]; [7]): 1 n (%)
- BDI-II Depressive Symptoms Minimal (0-13) (participants with ET [5]; [7]): 12 n (%)
- BDI-II Depressive Symptoms Moderate (20-28) (participants with ET [5]; [7]): 0 n (%)
- BDI-II Depressive Symptoms Severe (29-63) (participants with ET [5]; [7]): 0 n (%)
- BDI-II Depressive Symptoms Mild (14-19) (participants with ET [5]; [8]): 1 n (%)
- BDI-II Depressive Symptoms Minimal (0-13) (participants with ET [5]; [8]): 11 n (%)
- BDI-II Depressive Symptoms Moderate (20-28) (participants with ET [5]; [8]): 0 n (%)
- BDI-II Depressive Symptoms Severe (29-63) (participants with ET [5]; [8]): 0 n (%)
- BDI-II Depressive Symptoms Mild (14-19) (participants with ET [5]; [9]): 0 n (%)
- BDI-II Depressive Symptoms Minimal (0-13) (participants with ET [5]; [9]): 10 n (%)
- BDI-II Depressive Symptoms Moderate (20-28) (participants with ET [5]; [9]): 0 n (%)
- BDI-II Depressive Symptoms Severe (29-63) (participants with ET [5]; [9]): 0 n (%)
- BDI-II Depressive Symptoms Mild (14-19) (participants with ET [5]; [10]): 0 n (%)
- BDI-II Depressive Symptoms Minimal (0-13) (participants with ET [5]; [10]): 6 n (%)
- BDI-II Depressive Symptoms Moderate (20-28) (participants with ET [5]; [10]): 0 n (%)
- BDI-II Depressive Symptoms Severe (29-63) (participants with ET [5]; [10]): 0 n (%)
- BDI-II Depressive Symptoms Mild (14-19) (participants with ET [5]; [11]): 1 n (%)
- BDI-II Depressive Symptoms Minimal (0-13) (participants with ET [5]; [11]): 4 n (%)
- BDI-II Depressive Symptoms Moderate (20-28) (participants with ET [5]; [11]): 0 n (%)
- BDI-II Depressive Symptoms Severe (29-63) (participants with ET [5]; [11]): 0 n (%)
- change in BDI-II scores (participants with ET [5]; Part B, pre-dose baseline to Day 70): no clinically meaningful change over time
